Columns and labels:
[1] = Solubility tests in representative solvents (Vogel protocol); details: 25 °C; for solubility: thermodynamic from solid
Method: The solubilities of the prepared ILs in ten representative solvents were determined according to the protocols from Vogel’s Textbook of Practical Organic Chemistry. The solvents chosen for the study were arranged in order of descending value of their Snyder polarity index: water—9.0, methanol—6.6, acetone—5.1, isopropanol—4.3, toluene—2.3, and hexane—0.0.

[2] = test system: radish (Raphanus sativus) sprouts; assay: Phytotoxicity test on radish sprouts; assay type: in vivo; details: for Reduction in Sprout Mass: compared with untreated control; for Mass of 25 Sprouts: radish, 5 days, UTC 3.09 g
Method: Twenty five seeds of radish (Raphanus sativus) were placed on a filter tissue in a Petri dish. […] Then, sprouts were weighted. All variants of treatment were tested together, with 3 replications (plates) in each of 2 cycles performed. Results were subjected to statistical analysis as described in Section 4.8.
(§1) Statistical significance of the effect of the treatments of plants with tested compounds on the phytotoxicity and SAR induction was assessed with the ANOVA test performed using the Statistica program StatSoft with software version 9.1 (StatSoft Sp. z o.o., Kraków, Poland). The statistical assumptions of normality and homogeneity of variances were verified prior to conducting the ANOVA tests. Differences between the means were estimated with Tukey’s HSD test at the significance level of p = 0.05.

[3] = test system: Tobamovirus tabaci (tobacco mosaic virus, TMV) on Nicotiana tabacum cv. Xanthi; assay: SAR induction assay: necrotic area after TMV inoculation of sprayed tobacco; assay type: in vivo; details: for SAR Induction (percentage of necrotic area on leaves): TMV inoculation after 7 days, read 7 days later, UTC 34.54; for Reduction in Necrotic Area: compared with untreated control plants; for Percentage of necrotic spot coverage (leaf shown in supplementary figure): single leaf image
Method: Plants of Nicotiana tabacum cv. Xanthi were grown under greenhouse conditions at 25 °C and 50% relative humidity, under natural daylight during the May–August growing season, with a natural photoperiod. The plants were sprayed with solutions containing the tested compounds.
In all experiments, the TMV SL-1 isolate Tobamovirus (TMV) was used. To obtain a viral inoculum, Nicotiana tabacum cv. Samsun plants were sap-inoculated with previously virus-infected plant material. After the appearance of disease symptoms on the infected plants (leaf mosaic), the virus was isolated by sucrose density gradient centrifugation with 0.01 M Tris-HCl, pH 7.0, to prepare the infectious inoculum. The concentration of virus in the obtained preparation was determined spectrophotometrically. The samples of TMV were stored at −20 °C until use.
The tested active substances at a given concentration were sprayed on tobacco plants with three fully developed leaves. The volume of working solution used was equal to 10 mL per plant. The compounds were dissolved in a water/propylene glycol solution (95/5, v/v). The plants of the untreated control variant were sprayed with a water/propylene glycol solution (95/5, v/v) that was used for the preparation of solutions of the tested compounds. After seven days, the plants were mechanically inoculated using purified viral preparations (0.01 ng/mL as described in [34]).
The plants were inoculated with the TMV inoculum at a concentration of 3.8 × 10^−4 ng per leaf. For each variant of treatment, 3 plants were sprayed, and 3 leaves of each plant were analyzed. The entire experiment was performed in 2 replicates. Necrotic areas on the leaves were determined using ImageJ software.
The surface of a leaf or an area with necrotic spots is represented by a set of pixels in the image, which are counted by the program. Reduction in necrotic area (ISAR) is expressed by the following formula:(1) ISAR=100−(At/Ac∗100) where At is the ratio of the area of necrotic spots caused by viral infection that appeared on the leaf treated with the test substance to the whole area of the leaf; Ac is the ratio of the area of the necrotic spots caused by viral infection that appeared on the leaf of the control plant to the whole area of the leaf.
as §1

[4] = Thermogravimetric analysis (TGA), thermal stability; details: TGA under nitrogen, 10 °C/min; for Thermal Stability T5%onset: 5% weight loss onset; for Thermal Stability Tonset: decomposition onset
Method: TGA was performed on a TGA Q50 (Texas Instruments, Dallas, TX, USA) under nitrogen. Samples (5–10 mg) were heated from 25 °C to 500 °C at 10 °C/min with an isothermal step at 85 °C for 10 min. T5%onset and Tonset values were recorded.

[5] = topical, read-out: Reduction in Necrotic Area

| SMILES | Solubility in Hexane ([1]; Snyder polarity index 0.0) | Solubility in Toluene ([1]; Snyder polarity index 2.3) | Solubility in Isopropanol ([1]; Snyder polarity index 4.3) | Solubility in Acetone ([1]; Snyder polarity index 5.1) | Solubility in Methanol ([1]; Snyder polarity index 6.6) | Solubility in Water ([1]; Snyder polarity index 9.0) | Reduction in Sprout Mass ([2]; 125 mg/L) | Mass of 25 Sprouts ([2]; 125 mg/L) | Reduction in Sprout Mass ([2]; 250 mg/L) | Mass of 25 Sprouts ([2]; 250 mg/L) | SAR Induction (percentage of necrotic area on leaves) ([3]; 125 mg/L spray) | Reduction in Necrotic Area ([3]; 125 mg/L) | SAR Induction (percentage of necrotic area on leaves) ([3]; 250 mg/L spray) | Reduction in Necrotic Area ([3]; 250 mg/L) | Thermal Stability T5%onset [4] | Thermal Stability Tonset [4] | further results |
| --- | --- | --- | --- | --- | --- | --- | --- | --- | --- | --- | --- | --- | --- | --- | --- | --- | --- |
| C[N+](C)(C)CCCl.O=C([O-])c1cc(Cl)ccc1O [[CC][5-ClSal]] | − (insoluble) | − (insoluble) | +/− (of limited solubility) | − (insoluble) | + (soluble) | +/− (of limited solubility) | 19.15% | 2.50 efg D | 30.15% | 2.16 fgh C | 3.15 a AB % | 90.9% | 1.58 a A % | 95.4% | 217.1 °C | 138.5 °C | Percentage of necrotic spot coverage (leaf shown in supplementary figure) ([3]; 125 mg/L): 2.28%; Percentage of necrotic spot coverage (leaf shown in supplementary figure) ([3]; 250 mg/L): 1.15%; Difference in percentage reduction in leaf necrotic area between 125 mg/L and 250 mg/L ([3]; in vivo): approximately 4.5 percentage points |
| C[N+](C)(C)CCCl.O=C([O-])c1cc(Cl)nc(Cl)c1 [[CC][Ina]] | − (insoluble) | − (insoluble) | +/− (of limited solubility) | − (insoluble) | + (soluble) | + (soluble) | 15.05% | 2.63 fgh D | 28.21% | 2.22 gh C | 14.80 cd AB % | 57.2% | 12.52 ef A % | 63.8% | 177.2 °C |  |  |
| C[N+](C)(C)CCCl.O=C([O-])c1ccccc1O [[CC][Sal], chlormequat salicylate] |  |  |  |  |  |  | 8.79% | 2.82 hi C g | 26.91% | 2.26 hi B g | 19.99 de B % |  | 12.39 ef A % |  | 186.1 °C | 93.3 °C | solubility ([1]; organic solvent or mixture, Solubility in Acetone, Snyder polarity index 5.1): < 33.3 mg/mL; solubility ([1]; organic solvent or mixture, Solubility in Hexane, Snyder polarity index 0.0): < 33.3 mg/mL; solubility ([1]; organic solvent or mixture, Solubility in Isopropanol, Snyder polarity index 4.3): 33.3 to 100 mg/mL; solubility ([1]; organic solvent or mixture, Solubility in Methanol, Snyder polarity index 6.6): > 100 mg/mL; solubility ([1]; organic solvent or mixture, Solubility in Toluene, Snyder polarity index 2.3): < 33.3 mg/mL; solubility ([1]; water, Solubility (water)): > 100 mg/mL; solubility ([1]; water, Solubility in Water, Snyder polarity index 9.0): > 100 mg/mL; pest or weed control at 125 µg/mL [3, 5]: 42.1%; pest or weed control at 250 µg/mL [3, 5]: 64.1% |

— paper PMC12610573, “New Chlormequat-Based Ionic Liquids as Plant Resistance Inducers” (Molecules, 2025)
